Experimental data reported in patent US20230416205A1, “COMPOUNDS, COMPOSITIONS, AND METHODS” (Denali Therapeutics Inc, priority 2020, published 2023).
pIC50: −log10 of the molar value. Where two headings read alike, the source gives them in different places.

Test system: NLRP3
Test: IL-1β secretion assay in PMA-differentiated, LPS/nigericin-stimulated THP-1 cells (384-well, ELISA read-out)
Type: cell-based, human
Outline: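 Secreted IL-1β quantified by capture ELISA from supernatants of PMA-differentiated THP-1 cells (30K per well). Sequence: LPS 25 ng/mL priming 2 h, compound 1 h, nigericin 2 h; dose-responses normalized between high (LPS plus 5 μM nigericin) and low (LPS alone) controls.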

[1] = Homo sapiens, THP-1, IL-1β secretion, PMA-differentiated THP-1 cells, LPS then nigericin stimulation, ELISA read at 450 nm, read-out: Activity
[2] = Homo sapiens, THP-1, Table 4, IL-1β secretion, LPS/nigericin-stimulated THP-1 cells, read-out: IC50
[3] = Table 4, IL-1β secretion, LPS/nigericin-stimulated THP-1 cells, read-out: IC50

SMILES | pIC50 [1] | pIC50 [2] | pIC50 [3] | pIC50 (IL-1β secretion, PMA-differentiated THP-1 cells, LPS then nigericin stimulation, ELISA read at 450 nm, read-out: Activity)
O=C(CN1CC2(CC2)c2cc(Br)ccc2C1=O)Nc1ccn2nccc2n1 [Example 175, 2-(6-bromo-1-oxospiro[3H-isoquinoline-4,1′-cyclopropane]-2-yl)-N-pyrazolo[1,5-a]pyrimidin-5-ylacetamide] | > 5.00 | 6.17 | – | –
CC12CC(NC(=O)CN3CC4(CC4)c4cc(Br)ccc4C3=O)(CO1)C2 [Example 53, 2-(6-bromo-1-oxo-spiro[3H-isoquinoline-4,1′-cyclopropane]-2-yl)-N-(1-methyl-2-oxabicyclo[2.1.1]hexan-4-yl)acetamide] | > 5.00 | 5.11 | – | –
CC1(O)CC(NC(=O)CN2C[C@@]3(C[C@@H]3F)c3cc(C(F)(F)F)ccc3C2=O)C1 (single isomer, unassigned) [Example 328, N-(3-cis-hydroxy-3-methylcyclobutyl)-2-[(2′s,4r)-2′-fluoro-1-oxo-6-(trifluoromethyl)spiro[3H-isoquinoline-4,1′-cyclopropane]-2-yl]acetamide] | – | – | 7.17 | –
O=C(CN1CC2(CC2)c2cc(Br)ccc2C1=O)NCC1CCC1 [Example 164, 2-(6-bromo-1-oxospiro[3H-isoquinoline-4,1′-cyclopropane]-2-yl)-N-(cyclobutylmethyl)acetamide] | > 5.00 | 5.22 | – | –
O=C(CN1CC2(CC2)c2c(F)cccc2C1=O)Nc1ncc(F)cn1 [Example 42, 2-(5-fluoro-1-oxo-spiro[3H-isoquinoline-4,1′-cyclopropane]-2-yl)-N-(5-fluoropyrimidin-2-yl)acetamide] | > 5.00 | 5.28 | – | –
O=C(CN1CC2(CC2)c2cc(Br)ccc2C1=O)NC1Cc2ccccc2C1 [Example 129, 2-(6-bromo-1-oxospiro[3H-isoquinoline-4,1′-cyclopropane]-2-yl)-N-(2,3-dihydro-1H-inden-2-yl)acetamide] | > 5.00 | 5.14 | – | –
O=C(CN1CC2(CC2)c2cc(Br)ccc2C1=O)N[C@@H]1CCCN(C2COC2)C1 [Example 365, 2-(6-bromo-1-oxospiro[3H-isoquinoline-4,1′-cyclopropane]-2-yl)-N-[(3R)-1-(oxetan-3-yl)piperidin-3-yl]acetamide] | – | 5.67 | – | –
N#Cc1ccc2c(c1)C1(CC1)CN(CC(=O)Nc1ncc(F)cn1)C2=O [Example 177, 2-(6-cyano-1-oxospiro[3H-isoquinoline-4,1′-cyclopropane]-2-yl)-N-(5-fluoropyrimidin-2-yl)acetamide] | > 5.00 | 5.36 | – | –
O=C(CN1CC2(CC2)c2cc(Br)ccc2C1=O)Nc1ccc(Cl)nn1 [Example 10] | > 5.00 | 5.89 | – | –
Cn1cc(NC(=O)CN2CC3(CC3)c3cc(Br)ccc3C2=O)ncc1=O [Example 337, 2-(6-bromo-1-oxospiro[3H-isoquinoline-4,1′-cyclopropane]-2-yl)-N-(4-methyl-5-oxopyrazin-2-yl)acetamide] | – | 5.13 | – | –
O=C(CN1CC2(CCC2)c2cc(Br)ccc2C1=O)Nc1ncccn1 [Example 32, 2-(6-bromo-1-oxo-spiro[3H-isoquinoline-4,1′-cyclobutane]-2-yl)-N-pyrimidin-2-yl-acetamide] | > 5.00 | 5.71 | – | –
O=C(CN1CC2(CC2)c2cc(Br)ccc2C1=O)N[C@@H]1CCCN(C2CCC2)C1 [Example 70, 2-(6-bromo-1-oxo-spiro[3H-isoquinoline-4,1′-cyclopropane]-2-yl)-N-[(3R)-1-cyclobutyl-3-piperidyl]acetamide] | > 5.00 | 6.72 | – | –
N#Cc1cnc(NC(=O)CN2C[C@]3(C[C@H]3F)c3cc(Br)ccc3C2=O)nc1 [Example 272] | > 5.00 | 7.85 | – | –
Cc1nc(-c2ccnc(NC(=O)CN3CC4(CC4)c4cc(Br)ccc4C3=O)n2)cs1 [Example 187, 2-(6-bromo-1-oxospiro[3H-isoquinoline-4,1′-cyclopropane]-2-yl)-N-[4-(2-methyl-1,3-thiazol-4-yl)pyrimidin-2-yl]acetamide] | > 5.00 | 6.06 | – | –
O=C(CN1CC(C(F)(F)F)c2cc(Br)ccc2C1=O)Nc1ncc(F)cn1 (single isomer, unassigned) [Example 299, 2-[6-bromo-1-oxo-4-(trifluoromethyl)-3,4-dihydroisoquinolin-2-yl]-N-(5-fluoropyrimidin-2-yl)acetamide] | > 5.00 | – | 7.02 | –
O=C(CN1CC2(CC2)c2cc(Br)ccc2C1=O)Nc1ncc(C(F)(F)F)cc1F [Example 9] | > 5.00 | 6.40 | – | –
O=C(CN1CC2(CC2)c2cc(C(F)(F)F)c(F)cc2C1=O)Nc1ncc(F)cn1 [Example 84, 2-[7-fluoro-1-oxo-6-(trifluoromethyl)spiro[3H-isoquinoline-4,1′-cyclopropane]-2-yl]-N-(5-fluoropyrimidin-2-yl)acetamide] | > 5.00 | 5.22 | – | –

SMILES | pIC50 [1] | pIC50 [2] | pIC50 [3] | pIC50 (IL-1β secretion, PMA-differentiated THP-1 cells, LPS then nigericin stimulation, ELISA read at 450 nm, read-out: Activity)
O=C(CN1C[C@]2(C[C@H]2F)c2cc(Br)ccc2C1=O)Nc1nc2ccccn2n1 [Example 271] | > 5.00 | 7.54 | – | –
O=C(CN1CC2(CC2)c2cc(Br)ccc2C1=O)Nc1ccc(OC(F)F)nc1 [Example 420, 2-(6-bromo-1-oxospiro[3H-isoquinoline-4,1′-cyclopropane]-2-yl)-N-[6-(difluoromethoxy)pyridin-3-yl]acetamide] | – | 5.42 | – | –
O=C(CN1CC2(CC2)c2cc(Br)ccc2C1=O)Nc1cnc2ccccc2c1 [Example 131, 2-(6-bromo-1-oxospiro[3H-isoquinoline-4,1′-cyclopropane]-2-yl)-N-quinolin-3-ylacetamide] | > 5.00 | 5.11 | – | –
O=C(CN1C[C@]2(C[C@H]2F)c2c(ccc(Br)c2F)C1=O)Nc1ncccn1 (single isomer, unassigned) [Example 227, 2-[(2′s,4r)-6-bromo-2′,5-difluoro-1-oxospiro[3H-isoquinoline-4,1′-cyclopropane]-2-yl]-N-pyrimidin-2-ylacetamide] | > 5.00 | 6.90 | – | –
O=C(CN1CC2(CC2)c2cc(Br)ccc2C1=O)Nc1ncc(F)s1 [Example 163, 2-(6-bromo-1-oxospiro[3H-isoquinoline-4,1′-cyclopropane]-2-yl)-N-(5-fluoro-1,3-thiazol-2-yl)acetamide] | > 5.00 | 5.18 | – | –
CC(C)(O)CC1(NC(=O)CN2CC3(CC3)c3cc(Br)ccc3C2=O)CC1 [Example 174, 2-(6-bromo-1-oxospiro[3H-isoquinoline-4,1′-cyclopropane]-2-yl)-N-[1-(2-hydroxy-2-methylpropyl)cyclopropyl]acetamide] | 4.82 to 5.00 | 4.96 | – | –
C[C@H]1C[C@]12CN(CC(=O)Nc1ncc(F)cn1)C(=O)c1ccc(Br)cc12 (single isomer, unassigned) [Example 280, 2-[(2′s,4s)-6-bromo-2′-methyl-1-oxospiro[3H-isoquinoline-4,1′-cyclopropane]-2-yl]-N-(5-fluoropyrimidin-2-yl)acetamide] | – | – | 5.63 | > 5.00
O=C(CN1C[C@]2(C[C@H]2F)c2cc(C3(F)CC3)ccc2C1=O)Nc1ncc(Cl)cn1 [Example 250] | > 5.00 | 7.85 | – | –
Cc1cnc(NC(=O)CN2CC3(CC3)c3cc(Br)ccc3C2=O)nc1 [Example 202, 2-(6-bromo-1-oxospiro[3H-isoquinoline-4,1′-cyclopropane]-2-yl)-N-(5-methylpyrimidin-2-yl)acetamide] | > 5.00 | 6.73 | – | –
O=C(CN1CC2(CC2)c2cc(Br)ccc2C1=O)Nc1nc2cc(Cl)ccn2n1 [Example 261, 2-(6-bromo-1-oxospiro[3H-isoquinoline-4,1′-cyclopropane]-2-yl)-N-(7-chloro-[1,2,4]triazolo[1,5-a]pyridin-2-yl)acetamide] | > 5.00 | 6.65 | – | –
O=C(CN1CC2(CC2)c2cc(Br)ccc2C1=O)Nc1ccc2ncsc2c1 [Example 140, N-(1,3-benzothiazol-6-yl)-2-(6-bromo-1-oxospiro[3H-isoquinoline-4,1′-cyclopropane]-2-yl)acetamide] | > 5.00 | 6.05 | – | –
O=C(CN1CC2(CC2)c2cc(C(F)F)ccc2C1=O)Nc1ncc(F)cn1 [Example 96, 2-[6-(difluoromethyl)-1-oxospiro[3H-isoquinoline-4,1′-cyclopropane]-2-yl]-N-(5-fluoropyrimidin-2-yl)acetamide] | > 5.00 | 5.88 | – | –
O=C(CN1CC2(CC2)c2cc(Br)ccc2C1=O)Nc1nc2cnccc2o1 [Example 210, 2-(6-bromo-1-oxo-spiro[3H-isoquinoline-4,1′-cyclopropane]-2-yl)-N-oxazolo[4,5-c]pyridin-2-yl-acetamide] | > 5.00 | 6.09 | – | –
N#Cc1cnc(NC(=O)CN2CC3(CC3)c3cc(Br)ccc3C2=O)nc1 [Example 3] | > 5.00 | 7.33 | – | –
O=C(CN1CC2(CC2)c2c(ccc(Br)c2F)C1=O)Nc1ncccn1 [Example 39, 2-(6-bromo-5-fluoro-1-oxo-spiro[3H-isoquinoline-4,1′-cyclopropane]-2-yl)-N-(pyrimidin-2-yl)acetamide] | > 5.00 | 7.05 | – | –
O=C(CN1CC2(CC2)c2cc(Br)ccc2C1=O)NC1CC(OC(F)F)C1 (stereo not shown) [Example 60, 2-(6-bromo-1-oxo-spiro[3H-isoquinoline-4,1′-cyclopropane]-2-yl)-N-[3-(difluoromethoxy)cyclobutyl]acetamide] | > 5.00 | 5.06 | – | –
N#Cc1cnc(NC(=O)CN2C[C@@]3(C[C@@H]3F)c3cc(C(F)(F)F)ccc3C2=O)nc1 (single isomer, unassigned) [Example 236, N-(5-cyanopyrimidin-2-yl)-2-[(2′s,4r)-2′-fluoro-1-oxo-6-(trifluoromethyl)spiro[3H-isoquinoline-4,1′-cyclopropane]-2-yl]acetamide] | > 5.00 | – | 5.95 | –
